Measurements published in patent publication US12275721B2, “Indazole carboxamides as kinase inhibitors” (BRISTOL-MYERS SQUIBB COMPANY, priority 2019, dated 2025).
pIC50: −log10 of the molar value.

Columns and labels:
[1] = molecular target: T1, His-GST-TVMV-hRIPK1(1-324) (Homo sapiens, UniProt Q13546); assay: RIPK1 HTRF Binding Assay; settings: HTRF probe displacement, 1 h at rt
T1 construct: 1 nM His-GST-TVMV-hRIPK1(1-324) in FRET Buffer; made in house; host or cells: Spodoptera frugiperda (Sf9) insect cells, baculovirus (Bac-to-Bac)
T1 sequence (Q13546 1-324): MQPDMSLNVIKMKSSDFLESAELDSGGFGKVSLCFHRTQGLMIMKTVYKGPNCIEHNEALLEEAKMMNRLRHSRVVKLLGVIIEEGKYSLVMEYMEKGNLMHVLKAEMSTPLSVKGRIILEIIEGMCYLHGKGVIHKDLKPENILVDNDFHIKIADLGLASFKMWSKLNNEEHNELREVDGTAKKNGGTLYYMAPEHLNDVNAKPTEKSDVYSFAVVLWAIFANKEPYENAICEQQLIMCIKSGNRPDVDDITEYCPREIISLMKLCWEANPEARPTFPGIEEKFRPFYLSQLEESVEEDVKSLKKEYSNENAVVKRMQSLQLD
Description: A solution was prepared containing 0.2 nM Anti GST-Tb (Cisbio, 61GSTTLB), 90.6 nM probe and 1 nM His-GST-TVMV-hRIPK1(1-324) in FRET Buffer (20 mM HEPES, 10 mM MgCl2, 0.015% Brij-35, 4 mM DTT, 0.05 mg/mL BSA). Using Formulatrix Tempest, the detection antibody/enzyme/probe solution ([…]) was dispensed into wells of a 1536 plate (Black Low Binding Polystyrene 1536 Plate (Corning, 3724)) containing 10 nL of compounds of interest at appropriate concentration in DMSO. The plate was incubated at rt for 1 h. FRET was measured using the EnVision plate reader (Excitation: 340 nm, Emission: 520 nm/[…]). Total signal (0% inhibition) was calculated from wells containing 10 nL DMSO only.
Cloning and Baculovirus Expression of RIPK1 Construct
The coding region of human RIPK1(1-324) flanked by NdeI site at 5′ end and stop codon TGA and XhoI site at 3′ end was codon optimized and gene synthesized at GenScript USA Inc. (Piscataway, NJ) and subcloned into a modified pFastBac1 vector (Invitrogen, Carlsbad, CA) with N-terminal His-GST-TVMV tag, to generate His-GST TVMV-hRIPK1(1-324)-pFB. The fidelity of the synthetic fragment was confirmed by sequencing. Baculovirus was generated for the construct using the Bac-to-Bac baculovirus expression system (Invitrogen) according to the manufacturer's protocol. Briefly, recombinant bacmid was isolated from transformed DH10Bac E. coli competent cells 20 (Invitrogen) and used to transfect Spodoptera frugiperda (Sf9) insect cells (Invitrogen). Baculovirus was harvested 72 hours post transfection and a virus stock was prepared by infecting fresh Sf9 cells at a 1/1000 (v/v) ratio for 66 hours. For large scale protein production, Sf9 cells (Expression System, Davis, CA) grown in ESF921 insect medium (Expression System) at 2×10^6 cells/ml were infected with virus stock at a 1/100 (v/v) ratio for 66 hours. The production was carried out either at a 10 L scale in a 22 L cellbag (GE Healthcare Bioscience, Pittsburgh, PA) or at a 20 L scale in a 50 L cellbag using WAVE-Bioreactor System 20/50 (GE Healthcare Bioscience). The infected cells were harvested by centrifugation at 2000 rpm for 20 min at 4° C. in a SORVALL® RC12BP centrifuge. The cell pellets was stored at −70° C. before protein was purified.
Purification of His-GST-TVMV-hRIPK1(1-324)
RIPK1 containing cell paste was resuspended in 50 mM Tris pH 7.5, 150 mM NaCl, 10 mM imidazole, 5% glycerol, 5 mM MgSO4, 1 mM TCEP, 25 U/ml Benzonase, and Complete Protease Inhibitor tablets (1/50 ml, Roche Diagnostics, Indianapolis, IN). The cells were lysed by nitrogen cavitation using an unstirred pressure vessel @ 525 PSI (Parr Instrument Company, Moline, IL). The suspension was clarified by centrifugation at 136,000×g for 40 min, at 4° C. The lysate was decanted from the pellet and passed through a 5 ml NiNTA Superflow cartridge (Qiagen, Valencia, CA) using an AKTA Pure (GE Healthcare). Column was eluted with 10 CV linear gradient into 50 mM Tris 7.5, 150 mM NaCl, 500 mM imidazole, 5% glycerol, 1 mM TCEP. Peak fractions were pooled and loaded directly onto 5 ml GSTrap 4B column (GE Healthcare). Column was washed with 50 mM Tris 7.0, 150 mM NaCl, […], 1 mM DTT and eluted in 10 CV linear gradient into 50 mM Tris 8.0, 150 mM NaCl, 20 mM reduced glutathione, 50% glycerol, 1 mM DTT. Fractions identified by SDS-PAGE as containing RIPK1 were pooled and concentrated using 30 kDa MWCO spin concentrators (Amicon Ultra-15, Millipore, Billerica, MA) and loaded onto a HiLoad 26/600 Superdex 200 column (GE Healthcare) equilibrated in 25 mM Tris 7.5, 150 mM NaCl, 2 mM TCEP, […]. The RTPK1 protein eluted as a dimer off the SEC column. The yield was ˜8 mg/L with a purity […] as determined by Coomassie stain SDS-PAGE gel analysis. […] Protein was aliquoted and stored at −80° C. Using these assays, the IC50 values of the following compounds were determined.

[2] = test system: MLKL phosphorylation in HT29-L23 human colorectal adenocarcinoma cells; assay: MLKL Phosphorylation High-Content Assay; assay type: cell-based; settings: Homo sapiens, necroptosis induced with TNFα, SMAC mimetic and Z-VAD, 6 h, read-out: pMLKL (IC50)
Description: MLKL Phosphorylation High-Content Assay
HT29-L23 human colorectal adenocarcinoma cells were maintained in RPMI 1640 medium containing 10% heat-inactivated FBS, 1% Penicillin-Streptomycin and 10 mM HEPES. Cells were seeded at 2,000 cells/well in 384 well tissue culture-treated microplates (Greiner #781090-3B) and incubated at 37° C. (5% CO2/95% O2) for 2 d. On the day of the assay, the cells were treated with test compounds at final concentrations of 6.25 to 0.106 μM for 30 min at 37° C. (5% CO2/95% O2). Necroptopsis was induced using a mixture of human TNFα (35 ng/mL) (Peprotech #300-01A), SMAC mimetic (from US 2015/0322111 A1) (700 nM) and Z-VAD (140 nM) (BD pharmingen #51-6936). Following 6 h incubation at 37° C. (5% CO2/95% O2), the cells were fixed with 4% formaldehyde (ACROS 11969-0010) for 15 min at rt, then permeabilized with phosphate buffered saline (PBS) containing 0.2% Triton-X-100 for 10 min. MLKL phosphorylation was detected using anti-MLKL (phospho S358) antibody (Abcam #ab187091) (1:1000 dilution in Blocking Buffer [PBS supplemented with 0.1% BSA]) with ON incubation at 4° C. After washing three times in PBS, goat anti-rabbit Alexa-488 (1:1000 dilution) (Life Technologies, A1 1008) and Hoechst 33342 (Life Technologies, H3570) (1:2000 dilution) in Blocking Buffer were added for 1 h at rt. Following another three cycles of washes in PBS, the microplates were sealed, and cellular images were acquired in the Cellomics ArrayScan VTI high-content imager equipped with an X1 camera. Fluorescent images were taken using a 10× objective and the 386-23 BGRFRN_BGRFRN and 485-20 BGRFRN_BGRFRN filter sets, for nuclei and MLKL phosphorylation, respectively. The image sets were analyzed using the Compartmental Analysis Bioapplication software (Cellomics). The level of MLKL phosphorylation was quantified as MEAN_CircRingAvglntenRatio. The maximal inhibitory response was defined by the activity induced by Necls (CAS #: 852391-15-2, 6.25 μm). The IC50 value was defined as the concentration of compound that produces 50% of the maximal inhibition. The data were fitted using the 4-parameter logistic equation to calculate the IC50 and Ymax values.

| Structure (SMILES) | pIC50 [1] | pIC50 [2] |
| --- | --- | --- |
| CNC(=O)c1n[nH]c2cc(-c3nc(C)c(C(=O)NCc4cc(C(F)(F)F)ccc4F)s3)ccc12 [Example 18, N-(2-fluoro-5-(trifluoromethyl)benzyl)-4-methyl-2-(3-(methylcarbamoyl)-1H-indazol-6-yl)thiazole-5-carboxamide] | 7.82 | 8.05 |
| CNC(=O)c1n[nH]c2cc(-c3nc(C)c(C(=O)NC(C)c4cc(OC(F)(F)F)ccc4F)s3)ccc12 (stereo not shown) [Example 19, N-(1-(2-fluoro-5-(trifluoromethoxy)phenyl)ethyl)-4-methyl-2-(3-(methylcarbamoyl)-1H-indazol-6-yl)thiazole-5-carboxamide] | 7.89 | 7.72 |
| CNC(=O)c1n[nH]c2cc(-c3nc(C(=O)NCc4cc(OC(F)(F)F)ccc4F)cs3)ccc12 [Example 20, N-(2-fluoro-5-(trifluoromethoxy)benzyl)-2-(3-(methylcarbamoyl)-1H-indazol-6-yl)thiazole-4-carboxamide] | 6.40 | 6.09 |
| CNC(=O)c1n[nH]c2cc(-c3nc(C(=O)NCCC(C)c4ccccc4)cs3)ccc12 (stereo not shown) [Example 21, 2-(3-(methylcarbamoyl)-1H-indazol-6-yl)-N-(3-phenylbutyl)thiazole-4-carboxamide] | 6.77 | 6.09 |
| CNC(=O)c1n[nH]c2cc(-c3nc(C(=O)NCC[C@@H](O)c4ccc(Cl)cc4)cs3)ccc12 [Example 22, (R)-N-(3-(4-chlorophenyl)-3-hydroxypropyl)-2-(3-(methylcarbamoyl)-1H-indazol-6-yl)thiazole-4-carboxamide] | 6.48 | 5.92 |
| CNC(=O)c1n[nH]c2cc(-c3nc(C(=O)NCC[C@H](O)c4ccc(Cl)cc4)cs3)ccc12 [Example 23, (S)-N-(3-(4-chlorophenyl)-3-hydroxypropyl)-2-(3-(methylcarbamoyl)-1H-indazol-6-yl)thiazole-4-carboxamide] | 6.92 | 5.80 |
| CNC(=O)c1n[nH]c2cc(-c3ncc(C(=O)NCCC(C)c4ccccc4)s3)ccc12 (stereo not shown) [Example 24, 2-(3-(methylcarbamoyl)-1H-indazol-6-yl)-N-(3-phenylbutyl)thiazole-5-carboxamide] | 6.55 | 6.15 |
| CNC(=O)c1n[nH]c2cc(-c3ncc(C(=O)NCC[C@@H](O)c4ccc(Cl)cc4)s3)ccc12 [Example 25, (R)-N-(3-(4-chlorophenyl)-3-hydroxypropyl)-2-(3-(methylcarbamoyl)-1H-indazol-6-yl)thiazole-5-carboxamide] | 6.55 | 5.80 |
| CNC(=O)c1n[nH]c2cc(-c3nc(C)c(C(=O)NCc4cc(OC(F)(F)F)ccc4F)n3C)ccc12 [Example 26, 6-(5-((2-fluoro-5-(trifluoromethoxy)benzyl)carbamoyl)-1,4-dimethyl-1H-imidazol-2-yl)-N-methyl-1H-indazole-3-carboxamide] | 7.52 | 7.31 |
| CNC(=O)c1n[nH]c2cc(-c3nc(C)c(C(=O)NCCC(C)c4ccccc4)n3C)ccc12 (stereo not shown) [Example 27, 6-(1,4-dimethyl-5-((3-phenylbutyl)carbamoyl)-1H-imidazol-2-yl)-N-methyl-1H-indazole-3-carboxamide] | 6.66 | 6.33 |
| CNC(=O)c1n[nH]c2cc(-c3nc(C)c(C(=O)NCC[C@@H](O)c4ccc(Cl)cc4)n3C)ccc12 [Example 28, (R)-6-(5-((3-(4-chlorophenyl)-3-hydroxypropyl)carbamoyl)-1,4-dimethyl-1H-imidazol-2-yl)-N-methyl-1H-indazole-3-carboxamide] | 6.34 | 5.59 |
| CNC(=O)c1n[nH]c2cc(-c3nc(C)c(C(=O)NCC[C@H](O)c4ccc(Cl)cc4)n3C)ccc12 [Example 29, (S)-6-(5-((3-(4-chlorophenyl)-3-hydroxypropyl)carbamoyl)-1,4-dimethyl-1H-imidazol-2-yl)-N-methyl-1H-indazole-3-carboxamide] | 5.72 | 5.48 |
| CNC(=O)c1n[nH]c2cc(-c3nc(C)c(C(=O)NCc4cc(C(F)(F)F)ccc4F)n3C)ccc12 [Example 30, 6-(5-((2-fluoro-5-(trifluoromethyl)benzyl)carbamoyl)-1,4-dimethyl-1H-imidazol-2-yl)-N-methyl-1H-indazole-3-carboxamide] | 7.00 | 6.82 |
| CNC(=O)c1n[nH]c2cc(-c3nc(C(=O)NCc4cc(OC(F)(F)F)ccc4F)c(C)n3C)ccc12 [Example 31, 6-(4-((2-fluoro-5-(trifluoromethoxy)benzyl)carbamoyl)-1,5-dimethyl-1H-imidazol-2-yl)-N-methyl-1H-indazole-3-carboxamide] | 7.18 | 6.22 |
